Measurements reported in US20160045463A1, “USE OF METALLOPROTEASE INHIBITORS IN THE TREATMENT OF POLYCYSTIC LIVER DISEASES” (UNIVERSIDAD DE SALAMANCA, priority 2012, published 2016).

Legend:
[1] = system: PCK rats; assay: Treatment of PCK rats with Marimastat for 8 weeks; format: in vivo, rat
Source text: PCK rats, sold by the Charles River company, is a well characterised animal model of ARPKD and used for the study of liver and kidney cystogenesis (Mason S B, et al. The Anatomical Record: Advances in Integrative Anatomy and Evolutionary Biology 2010; 293:1279-1288). This colony of animals has a spontaneous orthologous mutation in the PKHD1 gene that causes them to develop liver and kidney symptoms similar to those of ARPKD patients. Thus, after 4 weeks of life, PCK rats, irrespective of sex, start to develop liver and kidney cystogenesis and fibrosis, which are clearly shown at 16 weeks of life. In addition, these animals also show an increase in serum values of creatinine, bilirubin, cholesterol, triglycerides and proteinuria (Mason S B, et al. The Anatomical Record: Advances in Integrative Anatomy and Evolutionary Biology 2010; 293:1279-1288). PCK rats were maintained on standard diet for the whole assay and all in vivo experimental procedures were approved by the Ethics Committee of the Instituto Biodonostia.
The group of control rats received the vehicle solution (i.e. distilled water) orally, 2 times a day (every ˜8-12 hours) and using the tube. Various biochemical markers were monitored in serum at the start and end of the study. Blood was extracted (500 μl through the tail vein) after anaesthetising the animal with isoflurane (inhalation anaesthesia, 2.5% in oxygen, with a flow rate of 0.3 L/min). After centrifuging the blood, various biochemical parameters were determined in the serum: alkaline phosphatase (ALP), transaminases (ALT, AST), bilirubin, biliary acids, creatinine, cholesterol, triglycerides and total proteins using a COBAS Integra400 Plus 174 analyser.
After sacrificing the animals, the liver and kidney were removed and weighed; next both types of tissue were sectioned with a scalpel and fixed with a solution of 10% formaldehyde, to be later included in paraffin. Slices of 5 μm thickness were made of each sample and stained with hematoxylin-eosin or picrosirius red.
The aim of hematoxylin-eosin staining is the determination of histological morphology. Thus the slices were incubated for 4 minutes with Harris hematoxylin (Merck) at room temperature. After incubation, the samples were washed with distilled water and stained with eosin (Merck) for 1 minute at room temperature. Next, the tissue slices were washed in running water for 5 minutes, dehydrated by immersion in solutions of increasing ethanol concentration (70%, 96%, 100% for 1 minute each) and finally incubated with xylol for 5 minutes. The samples were mounted with DePeX (Sigma) mounting medium for subsequent viewing in an optical microscope (Nikon Eclipse E800).
The purpose of picrosirius red staining is the determination of extracellular collagen in the tissue. When hydration was completed, the slices were stained with 0.2% phosphomolybdic acid (Panreac Química) for 2 minutes and washed with distilled water. Next, the samples were incubated with a solution of 0.1% picrosirius red f3B (Gibco) for 3 hours. Finally the samples were washed with a solution of 0.01 N HCl for 2 minutes; the tissue was then dehydrated and mounted as described in the previous section.
Additionally, the level of expression of various profibrotic hepatic markers [collagen 1a1 (Col1a1), beta transforming growth factor (TGFbeta), alpha actin of smooth muscle (alpha-Sma) and the growth factor of connective tissue (Ctgf)] and proinflammatory markers [IL-6, IL CXCL1 and IL1beta)] were analysed by RT-PCR in liver samples of control and PCK rats.

[2] = cited from earlier work
[3] = at the time of sacrifice, n = 9
[4] = serum, at the time of sacrifice, n = 9

- WEIGHT Left kidney [1, 3]: 2.40 ± 0.19
- WEIGHT Liver [1, 3]: 26.17 ± 2.98
- WEIGHT Rat [1, 3]: 497 ± 12.24
- WEIGHT Right kidney [1, 3]: 2.36 ± 0.17
- serum levels of biochemical markers and biliary flow ([1]; at the time of sacrifice, treated vs control, Table 5): no difference
- Albumin [1, 4]: 13.78 ± 0.59 g/L
- Alkaline phosphatase [1, 4]: 57.00 ± 5.01 U/L
- Cholesterol [1, 4]: 76.56 ± 3.93 mg/dL
- Creatinine [1, 4]: 0.36 ± 0.02 mg/dL
- Glucose [1, 4]: 137.89 ± 7.25 mg/dL
- HDL [1, 4]: 31.11 ± 3.06 mg/dL
- LDH [1, 4]: 15192.33 ± 356.84 U/L
- LDL [1, 4]: 33.38 ± 1.61 mg/dL
- Total bilirubin [1, 4]: 0.16 ± 0.05 mg/dL
- Total protein [1, 4]: 3.11 ± 0.12 g/dL
- Triglycerides [1, 4]: 60.33 ± 3.97 mg/dL
- Urea [1, 4]: 20.33 ± 0.78 mg/dL
Compound: CNC(=O)[C@@H](NC(=O)[C@H](CC(C)C)[C@H](O)C(=O)NO)C(C)(C)C [Marimastat, N-[2,2-dimethyl-1-(methylcarbamoyl)propyl]-2-[hydroxy-(hydroxycarbamoyl)methyl]-4-methyl-pentanamide]
- kidney cystogenesis ([1]; 8 weeks, FIG. 25): not affected
- cholangiocyte marker Ck19 expression at protein level (Western blot), hepatic samples ([1]; 8 weeks, p<0.001, FIG. 27A): down regulation
- collagen 1a1 (Col1a1) mRNA expression, hepatic samples ([1]; 8 weeks, p<0.05, FIG. 27B): down regulation
- mRNA levels of CXCL1 in liver samples ([1]; 8 weeks, p=0.08, FIG. 28B): almost statistically significant down regulation
- mRNA levels of IL6 in liver samples ([1]; 8 weeks, p=0.1, FIG. 28A): almost statistically significant down regulation
- collagen deposition in liver (picrosirius red) ([1]; 8 weeks, vs control PCK rats, FIG. 26): less collagen deposition
- liver cystogenesis (area of intrahepatic biliary cysts) ([1]; oral 0.2856 mg/kg/day, 8 weeks, vs control PCK rats, p<0.05, FIG. 24): reduction
- ALT [1, 4]: 138.22 ± 2.66 U/L
- AST [1, 4]: 755.56 ± 24.76 U/L
- oral bioavailability ([2]; compared with Batimastat): better oral bioavailability
- toxicity ([2]; compared with Batimastat): less toxicity
- elimination half-life ([2]; in vivo): 8 to 10 h
